Assays:
Experiment in all cases: relative viability (nuclei count vs DMSO), 5 days (fraction); higher = more cells survive
[1] = compound: C1COCCN1C2=CC(=O)C3=C(O2)C(=CC=C3)C4=CC=CC5=C4SC6=CC=CC=C56
Outline: (§1)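 Viability was defined as treated-well nuclei divided by vehicle-well nuclei, with the median taken over replicate plates. Cells from lung cancer lines sat overnight at 37 °C in 1536-well plates, received five √10-spaced library-drug doses by pinning on vehicle-anchored plates, and grew 5 days without medium change before one-step fixation, permeabilisation and Hoechst staining, 4× imaging and MetaXpress nuclear counts. Only plates with control CV under 25% and at least one doubling were kept.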

[2] = compound: CCN(CC)CCCCNc1ncc2cc(-c3cc(OC)cc(OC)c3)c(NC(=O)NC(C)(C)C)nc2n1
Outline: as §1

PRIMA-1MET = compound: COCC1(CO)C(=O)C2CCN1CC2 [PRIMA-1MET]
Outline: as §1

Zibotentan = compound: COc1nc(C)cnc1NS(=O)(=O)c1cccnc1-c1ccc(-c2nnco2)cc1 [Zibotentan]
Outline: as §1

[3] = compound: O=c1cc(-c2cccc3c2Sc2ccccc2S3)oc(N2CCOCC2)c1
Outline: as §1

Cell Line | relative viability ([1]; 0.01 µM) | relative viability ([1]; 0.03162 µM) | relative viability ([1]; 0.1 µM) | relative viability ([1]; 0.3162 µM) | relative viability ([1]; 1 µM) | relative viability ([2]; 0.01 µM) | relative viability ([2]; 0.03162 µM) | relative viability ([2]; 0.1 µM) | relative viability ([2]; 0.3162 µM) | relative viability ([2]; 1 µM) | relative viability (PRIMA-1MET; 0.2 µM) | relative viability (PRIMA-1MET; 0.6325 µM) | relative viability (PRIMA-1MET; 2 µM) | relative viability (PRIMA-1MET; 6.325 µM) | relative viability (PRIMA-1MET; 20 µM) | relative viability (Zibotentan; 0.08 µM) | relative viability (Zibotentan; 0.253 µM) | relative viability (Zibotentan; 0.8 µM) | relative viability (Zibotentan; 2.53 µM) | relative viability ([3]; 0.08 µM) | relative viability ([3]; 0.253 µM) | relative viability ([3]; 0.8 µM) | relative viability ([3]; 2.53 µM) | relative viability ([3]; 8 µM)
LU99A | 0.957 | 1.03 | 1.02 | 0.888 | 0.997 | 0.888 | 0.972 | 0.997 | 1.01 | 0.899 | 0.939 | 0.852 | 0.822 | 0.935 | 0.508 | 1.06 | 0.912 | 0.938 | 0.89 | 0.901 | 0.935 | 1.01 | 1.02 | 0.997
LXF-289 | 1.05 | 1.01 | 1.03 | 1.01 | 1.07 | 1.01 | 1.02 | 1.06 | 1.02 | 0.844 | 1.08 | 0.983 | 1.16 | 1.04 | 0.942 | 1.02 | 1.01 | 1.02 | 1.01 | 1.01 | 1.03 | 1.02 | 0.99 | 1.02
NCI-H23 | 0.981 | 1.11 |  | 1.12 | 1.03 | 0.923 | 1 | 0.957 | 1.08 | 0.977 | 0.904 | 0.754 | 0.814 | 0.909 | 0.201 | 1.05 | 0.91 | 0.89 | 1.1 | 0.776 | 1.11 | 1.02 | 0.846 | 0.879
NCI-H322M | 0.895 | 1.01 |  | 0.97 | 0.77 | 0.926 | 0.923 | 1.05 | 1.07 | 0.871 | 1.13 | 0.831 |  | 1.11 | 0.838 | 1.03 | 0.818 | 0.906 | 0.983 | 0.841 | 0.969 | 0.848 | 0.879 | 0.875
NCI-H358 | 0.857 | 0.93 | 1.04 | 1.07 | 1.05 | 0.899 | 0.933 | 1.05 | 1.15 | 0.815 | 1.09 | 0.775 | 0.829 | 1.07 | 0.451 | 0.954 | 0.675 | 0.924 | 0.956 | 0.807 | 1.04 | 0.985 | 0.988 | 0.888
NCI-H441 | 1.1 | 0.977 | 1.08 | 0.938 | 1.05 | 1.05 | 1.08 | 1.25 | 1.12 | 0.995 | 1 | 0.87 | 0.812 | 0.99 | 0.713 | 1.11 | 0.828 | 1.3 | 0.985 | 1.02 | 1.27 | 1.23 | 0.971 | 1.1
NCI-H460 | 0.971 | 0.993 | 1.01 | 1 | 0.989 | 0.994 | 1.05 | 1.14 | 1.09 | 0.959 | 1.01 | 0.859 | 0.86 | 1.02 | 0.592 | 1.04 | 0.838 | 0.926 | 0.995 | 1 | 1.13 | 0.918 | 0.935 | 1.08
NCI-H520 | 1.08 | 1.06 | 0.98 | 1.02 | 0.955 | 0.962 | 1 | 0.965 | 0.763 | 0.306 | 1.09 | 0.722 | 0.678 | 0.817 | 0.163 | 1.14 | 0.924 | 0.801 | 1.15 | 0.95 | 1.2 | 1.12 | 0.906 | 0.997
NCI-H522 | 1.09 | 0.992 | 0.889 | 1.21 | 0.984 | 1.11 | 1.05 | 0.914 | 0.96 | 0.907 | 0.888 | 0.804 | 0.921 | 0.886 | 0.279 | 0.839 | 0.957 | 0.904 | 0.867 | 0.888 | 1.01 | 0.798 | 0.908 | 0.967
NCI-H596 | 0.999 | 0.984 | 0.916 | 1.02 | 0.939 | 0.973 | 1.06 | 0.992 | 0.915 | 0.858 | 0.981 | 0.875 | 0.857 | 1.14 | 0.224 | 0.842 | 1.01 | 1.07 | 1.12 | 0.947 | 1.08 | 1.04 | 0.916 | 0.979
NCI-H647 | 0.911 | 0.918 | 0.867 | 1.05 | 0.986 | 0.94 | 1 | 1.04 | 1.1 | 0.903 | 1.11 | 0.824 | 0.783 | 1.04 | 0.762 | 0.964 | 0.83 | 0.887 | 0.993 | 0.937 | 1.2 | 1.02 | 0.855 | 1.01
NCI-H650 | 0.909 | 1.07 |  | 1.08 | 0.884 | 0.836 | 0.926 | 1.19 | 0.983 | 0.888 | 1.24 |  | 0.913 | 1.03 | 0.128 | 1.02 | 0.792 | 0.988 | 0.912 | 0.979 | 0.857 | 1.01 | 0.76 | 1.1
NCI-H661 | 0.965 | 1.01 | 0.98 | 0.991 | 0.969 | 1.06 | 1 | 1.03 | 1.09 | 0.993 | 1.03 | 0.917 | 0.991 | 1 | 0.957 | 1.01 | 0.912 | 0.951 | 0.987 | 0.996 | 1 | 0.948 | 0.942 | 0.951
NCI-H727 | 0.91 | 0.858 | 0.874 | 0.888 | 0.958 | 0.985 | 0.978 | 0.94 | 1.07 | 0.882 | 1.01 | 0.865 | 0.625 | 0.615 | 0.331 | 0.847 | 0.872 | 0.966 | 1.01 | 0.908 | 1.08 | 0.758 | 0.899 | 0.924
